One series concerns HEK293. Nature of the series: Indirect (secondary) cell killing assay. The series is classed as cell-based, human. Conditions: Table 11-3; maximum % kill. The text has this: To test the ability of anti-CACNG1 antibodies described herein to bind, internalize, and deliver payloads, cell binding and indirect cell killing assays were developed with primary human skeletal myoblasts (Cook Myosite Cat #SkMDC SK-1111), C2C12 mouse myoblasts (ATCC Cat #CRL-1772), and HEK293 cells engineered to express human and mouse CACNG1 (HEK293/hCACNG1 and HEK293/mCACNG1, respectively). To generate the HEK293/hCACNG1 and HEK293/mCACNG1 cell lines, FuGEGE 6 (Promega, Cat #E2691/5/3) was used to transfect HEK293HZ cells with a human CACNG1 (hCACNG1; amino acid M1-H222, Accession #NP_000718.1) or mouse CACNG1 (mCACNG1; amino acid M1-H223, Accession #NP_031608.1) expression vector. HEK293HZ is a highly transfectable subclone of HEK293 cells (1) authenticated via STIR (short tandem repeat) profiling to be 81% identical to HEK293 cells sourced from ATCC). […]
(§1) An indirect cell killing assay was used to assess the ability of anti-CACNG1 antibodies to internalize and deliver payloads into cells. In vitro cytotoxicity of the anti-CACNG1 antibodies alone or in combination with Fab anti-human Fc or Fab anti-mouse Fc secondary antibodies conjugated to Duocarmycin DM (Moradec, Cat #AH-202-DD-50 or Cat #AM-202-DD-50) were evaluated using the CellTiter-Glo 2.0 Assay Kit (Promega, Cat #G9243), in which the quantity of ATP present is used to determine the number of viable cells in culture. […]

In the next series the target is T1, HEK293/hCACNG1 (Homo sapiens, UniProt Q06432).
T1 construct: human CACNG1 (hCACNG1); expressed in transfected cells
Nature of the series: Indirect (secondary) cell killing assay. The format is cell-based. Conditions: Table 11-3; maximum % kill = 100 - minimum percent viability.
Source text: (§2) To test the ability of anti-CACNG1 antibodies described herein to bind, internalize, and deliver payloads, cell binding and indirect cell killing assays were developed with primary human skeletal myoblasts (Cook Myosite Cat #SkMDC SK-1111), C2C12 mouse myoblasts (ATCC Cat #CRL-1772), and HEK293 cells engineered to express human and mouse CACNG1 (HEK293/hCACNG1 and HEK293/mCACNG1, respectively). To generate the HEK293/hCACNG1 and HEK293/mCACNG1 cell lines, FuGEGE 6 (Promega, Cat #E2691/5/3) was used to transfect HEK293HZ cells with a human CACNG1 (hCACNG1; amino acid M1-H222, Accession #NP_000718.1) or mouse CACNG1 (mCACNG1; amino acid M1-H223, Accession #NP_031608.1) expression vector. HEK293HZ is a highly transfectable subclone of HEK293 cells (1) authenticated via STIR (short tandem repeat) profiling to be 81% identical to HEK293 cells sourced from ATCC). The HEK293HZ cell line was maintained in DMEM+10% FBS+1% L-glutamine/penicillin/streptomycin, while HEK293/hCACNG1 and HEK293/mCACNG1 cell lines were maintained in DMEM+10% FBS+1% L-glutamine/penicillin/streptomycin+500 ug/mL G418. Human skeletal myoblasts (HuSKM) were maintained in MyoTonic Basal Media (Cook Myosite Cat #MB-2222) supplemented with MyoTonic Growth Supplement (Cook Myosite Cat #MS-3333) and grown in a 37° C. incubator with 5% CO2. HuSKM were seeded in collagen-coated 96-well plates (Greiner Bio-One #655956) at 8,500 cells/well and grown for 24 hours. The growth media was changed to MyoTonic Differentiation Media (Cook Myosite Cat #MD-5555) and replaced every 2 days. Myotubes were assayed after 6 days of differentiation. C2C12 mouse myoblasts were maintained in DMEM with 10% FBS and 1% penicillin-streptomycin supplement and grown in a 37° C. incubator with 5% CO2. C2C12 cells were seeded in collagen-coated 96-well plates (Greiner Bio-One #655956) at 10,000 cells/well for the cell binding assay and 5,000 cells/well for the cell killing assay. After 24 hours, growth media was replaced with differentiation media (DMEM with 2% horse serum) and placed in a 37° C. incubator with 7.5% CO2. C2C12 myotubes were assayed after 3 days of differentiation. […]
as §1

Series [1] deals with primary human skeletal myotubes (HuSKM). Briefly: Indirect (secondary) cell killing assay. Conditions: Table 11-3; maximum % kill. The format is cell-based.
Source text: as §2, §1

The subject of a further series is mouse myotubes (C2C12). Briefly: Indirect (secondary) cell killing assay. The format is cell-based. To be noted: Table 11-3; maximum % kill.
Source text: as §2, §1

A further series has as its target T2, HEK293/mCACNG1 (Mus musculus, UniProt O70578).
T2 construct: mouse CACNG1 (mCACNG1); expressed in transfected cells
T2 sequence (O70578 1-223): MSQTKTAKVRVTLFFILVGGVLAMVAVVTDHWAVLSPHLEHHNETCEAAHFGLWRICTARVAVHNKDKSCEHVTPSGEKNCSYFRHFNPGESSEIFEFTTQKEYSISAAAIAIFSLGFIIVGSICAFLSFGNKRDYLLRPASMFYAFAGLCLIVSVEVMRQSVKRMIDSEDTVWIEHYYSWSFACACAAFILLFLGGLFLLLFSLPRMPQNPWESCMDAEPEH
Nature of the series: Indirect (secondary) cell killing assay. The series is classed as cell-based. To be noted: Table 11-3; maximum % kill.
Source text: as §2, §1

Another series relates to Dmpk. Briefly: In vivo siRNA durability of Dmpk knockdown. Also on record: species or system mouse. Conditions: 1 week post treatment, 3 and 5 mg/kg siRNA; FIGS. 13A-13E.

T1 sequence (Q06432 whole entry): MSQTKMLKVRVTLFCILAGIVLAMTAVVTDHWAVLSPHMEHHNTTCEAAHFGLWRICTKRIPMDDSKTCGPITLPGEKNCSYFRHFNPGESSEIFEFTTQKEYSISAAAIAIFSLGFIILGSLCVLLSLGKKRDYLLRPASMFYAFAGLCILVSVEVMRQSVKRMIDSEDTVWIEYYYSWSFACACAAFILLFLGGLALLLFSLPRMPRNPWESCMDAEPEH
Protocol for Dmpk: All doses were adjusted for drug-to-antibody (DAR) ratio, i.e., mice were dosed based on siRNA amount for body weight, as determined by liquid chromatography electrospray ionization approaches described herein. […] Mice were sacrificed at either 1 week, 3 weeks, or 6 weeks post dosing. […] The following tissues were placed into RNAlater (ThermoFisher Catalog #AM7021): gastrocnemius, soleus, quadricep, tibialis anterior, diaphragm, heart, liver, spleen, kidney. Tissues were allowed to sit in RNAlater for at least 2 hours at room temperature before being transferred to −20° C. Total RNA was purified using MagMAX™-96 for Microarrays Total RNA Isolation Kit Catalog #AM1839 (Ambion by Life Technologies) according to manufacturer's specifications. […] Samples were then reverse transcribed using SuperScript VILO MasterMix (Invitrogen Catalog #11755-250) according to manufacturer's specifications. For TaqMan gene expression analysis, TaqMan Gene Expression MasterMix (ThermoFisher Scientific Ref #4369016) was used according to manufacturer's specifications. The probes used in the assay were as followed: Dmpk FAM (ThermoFisher Mm00446261_m1) and Rplp0 (ThermoFisher Mm01974474_gH).

On to `COC(=O)c1cc2c([nH]1)C(=O)C=C1N(C(=O)c3cc4cc(OC)c(OC)c(OC)c4[nH]3)C[C@H]3C[C@]123` [Duocarmycin], for which the “% KILL” value came out at 99.6% with HEK293; 99.7% on HEK293/hCACNG1; 97.3% in series [1]; 99.6% in the series on mouse myotubes (C2C12); 99.8% on HEK293/mCACNG1.

Take “naked siRNA: siRNA against DMPK (siRNA1), SEQ ID NO: 416 sense and 417 antisense, used unconjugated as control (sense CCUCGGUAUUUAUUGUCUA; antisense UAGACAAUAAAUACCGAGG; listed as RNA, further chemistry not given here)”: in the series with Dmpk, the “Dmpk knockdown in skeletal muscle” value is reported as “no noticeable knockdown”.
